Experiment [1] relates to MRSA USA300. Nature of the experiment: Neutrophil bacterial co-culture (BKA) assay, MRSA USA300. Particulars: 2 hours. It counts as cell-based, Staphylococcus aureus. How it is done: The “MRSA assay” is carried out as follows: • a. admixing 100 μl of a 1×10^7 CFU/ml solution of MRSA strain USA300 in RPMI 1640 with 100 μl of a solution containing 1×10^7 granulocytes/ml; • b. incubating the admixture at 37° C. under shaking at 120 rpm; • c. taking a sample at 2 hours (diluting in sterile RPMI as needed) and plating on Tryptic Soy Agar; • d. incubating the plated sample at 37° C. for 24 hours; • e. counting the bacterial colonies; and • f. quantifying the total CFU content; and • g. calculating the % of MRSA cells killed based on the CFU content in steps a. and f using the formula ((CFU contentno effector−CFU contenteffector)/CFU contentno effector)×100.
(§1) 24 hours prior to use, overnight cultures (ONCs) of all strains (P. aeruginosa: multidrug resistant Cystic Fibrosis isolate RP73 (Di Lorenzo et al (2015), Mol. Immunol., 63, 166-175); MRSA: Community acquired strain USA300 (Diep et al (2006), Lancet, 367, 731-739)) were prepared by inoculating 20 ml tryptic soy broth (3% w/v TSB in deionised water) with 2 stock cryobeads for 24 hours at 37° C., under shaking at 120 rpm (Sciquip mini incu shake). After incubation, ONCs were centrifuged at 2,800 g for 20 minutes at 4° C. The pellet was then resuspended in 10 ml Roswell Park Memorial Institute (RPMI) 1640 medium (commercially available from Sigma-Aldrich, UK). Optical density readings were then taken for all strains and diluted in RPMI 1640 to an OD of 0.015, equivalent of 1×10^7 cfu/ml.
Bacterial cultures were prepared as described above. […] Post incubation, bacterial colonies were manually counted and the total cfu content quantified.
To validate an in vitro model of neutrophil bacterial killing activity (BKA) assay, increasing concentrations of neutrophils (1×10^5, 5×10^5 and 1×10^6 neutrophils per sample) were incubated with 1×10^6 cfu/ml of the P. aeruginosa strain RP73 under suspension. […] Post incubation, bacterial colonies were manually counted and the total cfu content quantified.

Experiment [2] deals with P. aeruginosa RP73. The experiment in a line: Neutrophil bacterial co-culture (BKA) assay, P. aeruginosa RP73. It counts as cell-based. The settings on record: 2 hours. How it is done:
as §1
Bacterial cultures were prepared as described above. 100 μl of 1×10^7 cfu/ml bacterial strains were added to either 100 μl RPMI 1640, 100 μl 1×10^7/ml neutrophils or increasing concentrations of Tobramycin (for P. aeruginosa) or Vancomycin (for MRSA) (1, 10, 100 μg/ml). These cultures were then incubated at 37° C., under shaking at 120 rpm for up to 24 hours. At 2, 6 and 24 hours, 20 μl aliquots of each sample were diluted in sterile RPMI at 1/10, 1/100, 1/1000, 1/10000, 1/100000 and 1/1000000 and plated on Tryptic Soy Agar (TSA) and incubated at 37° C. for 24 hours. Post incubation, bacterial colonies were manually counted and the total cfu content quantified.
To validate an in vitro model of neutrophil bacterial killing activity (BKA) assay, increasing concentrations of neutrophils (1×10^5, 5×10^5 and 1×10^6 neutrophils per sample) were incubated with 1×10^6 cfu/ml of the P. aeruginosa strain RP73 under suspension. These neutrophil/bacterial cultures were then incubated for 2 hours at 37° C. under 120 rpm of shaking. […] Post incubation, bacterial colonies were manually counted and the total cfu content quantified.

Where “and” joins values, the source holds several entries; their conditions need not be identical. Equal values may be shown once.

As for `NC[C@H]1O[C@H](O[C@H]2[C@H](O)[C@@H](O[C@H]3O[C@H](CO)[C@@H](O)[C@H](N)[C@H]3O)[C@H](N)C[C@@H]2N)[C@H](N)C[C@@H]1O` [Tobramycin], the “Bacterial Killing (%)” value in experiment [1] (antibiotic 10 μg/ml) is 25.05±6.13%; in experiment [2] (antibiotic 1 μg/ml), 6.60±2.22% and 6.60%; in experiment [2] (antibiotic 10 μg/ml) it was 77.78±13.40% and 77.78%; in experiment [2] (antibiotic 100 μg/ml), 95.37±2.87%.
`CN[C@H](CC(C)C)C(=O)N[C@H]1C(=O)N[C@@H](CC(N)=O)C(=O)N[C@H]2C(=O)N[C@H]3C(=O)N[C@H](C(=O)N[C@H](C(=O)O)c4cc(O)cc(O)c4-c4cc3ccc4O)[C@H](O)c3ccc(c(Cl)c3)Oc3cc2cc(c3O[C@@H]2O[C@H](CO)[C@@H](O)[C@H](O)[C@H]2O[C@H]2C[C@](C)(N)[C@H](O)[C@H](C)O2)Oc2ccc(cc2Cl)[C@H]1O` [Vancomycin]: the “Bacterial Killing (%)” value in experiment [1] (antibiotic 1 μg/ml) was 5.73±3.70% and 5.73%; in experiment [1] (antibiotic 100 μg/ml) it was 92.58±2.01%.

The values are drawn from patent publication US20240285681A1, “CELLS FOR TREATING INFECTIONS” (LIfT BioSciences Ltd, priority 2019, published 2024).
